Like-named read-outs stand apart in the source and are kept apart here. Marks after values point to notes of the source that are not given here.
Key:
[1] = 12-month treatment of ovariectomized rats with DHEA alone or with Flutamide or EM-800: bone histomorphometry, bone markers, serum lipids; assay type: in vivo, rat; conditions: 12 months
[2] = test system: ZR-75-1 human breast cancer xenografts; test: Growth and response of human ZR-75-1 breast tumor xenografts in estrone-supplemented OVX nude mice, DHEA and/or EM-800 for 9.5 months (Example 1); assay type: in vivo; conditions: for Inhibition of estrone-stimulated ZR-75-1 tumor size / Category of response: Complete (%) / Category of response: Complete (Number) / Category of response: Partial (%) / Category of response: Partial (Number) / Category of response: Progression (%) / Category of response: Progression (Number) / Category of response: Stable (%) / Category of response: Stable (Number) / Average tumor weight at end of experiment: 9.5 months; for Category of response: Complete (%) / Category of response: Complete (Number) / Category of response: Partial (%) / Category of response: Partial (Number) / Category of response: Progression (%) / Category of response: Progression (Number) / Category of response: Stable (%) / Category of response: Stable (Number) / Average tumor weight at end of experiment: E1-supplemented
[3] = 10% DHEA cream once daily for 12 months in 60 to 70 year old women; assay type: in vivo
Excerpt: The use of estrogen replacement therapy requires the addition of progestins to counteract the endometrial proliferation induced by estrogens while both estrogens and progestins could increase the risk of breast cancer (Bardon et al., 1985; Colditz et al., 1995). In order to avoid the limitations of standard estrogen (ERT) or hormonal replacement therapy (HRT), we have studied the effect of DHEA administration to 60 to 70 year old women for 12 months on bone mineral density, parameters of bone formation and turnover, serum lipids, glucose and insulin, adipose tissue mass, muscular mass, energy, well-being as well as on vaginal and endometrial histology (Diamond et al., 1996; Labrie et al., 1997c). DHEA was administered percutaneously to avoid first passage of the steroid precursor through the liver.
We have thus evaluated the effect of chronic replacement therapy with a 10% DHEA cream applied once daily for 12 months in 60 to 70 year old women (N=15). […] These changes in bone mineral density were accompanied by significant decreases at 12 months of 38% and 22% in urinary hydroxyproline and in plasma bone alkaline phosphatase, respectively (all p<0.05).

[4] = cited from earlier work
[5] = test system: ZR-75-1 human breast cancer xenografts; test: Growth and response of human ZR-75-1 breast tumors in OVX nude mice, 7 antiestrogens for 161 days with or without estrone (Example 8); assay type: in vivo
Method in brief: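 ZR-75-1 xenografts were grown in ovariectomized nude mice, with estrone implants removed in the OVX control and antiestrogen-alone groups. Antiestrogens were given as suspensions for 161 days. Tumor area came from two perpendicular diameters, and response was assessed at study end using mice surviving at least 84 days.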

[6] = Endometrial epithelium thickness in OVX nude mice after 161 days of antiestrogen (Example 8); assay type: in vivo
Method in brief: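 OVX nude mice received antiestrogen with or without an estrone implant; controls were OVX and OVX+Estrone. Antiestrogens were given as suspensions for 161 days. Uteri were then collected and H&E sections analysed by image analysis for mean endometrial epithelial cell height.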

[7] = test system: human Ishikawa cells; test: Alkaline phosphatase activity in human endometrial adenocarcinoma Ishikawa cells (Example 6)
[8] = DHEA 0.3 mg, EM-800 15 μg, or EM-800 15 μg + DHEA 0.3 mg
[9] = DHEA 1.0 mg, EM-800 50 μg, or EM-800 15 μg + DHEA 1.0 mg
[10] = DHEA 3.0 mg, EM-800 100 μg, or EM-800 15 μg + DHEA 3.0 mg
[11] = estrone-supplemented, 50 μg daily, 161 days

With `C[C@]12CC[C@H](O)CC1=CC[C@@H]1[C@@H]2CC[C@]2(C)C(=O)CC[C@@H]12` [DHEA, dehydroepiandrosterone] the “reduction of serum cholesterol versus OVX control” value [1] was 22%, the “Alkaline phosphatase (serum)” value ([1]; OVX rats) was 201±25 IU/L and the “CHOLESTEROL (serum)” value ([1]; OVX rats) was 1.78 ± 0.16 mmol/L. For the same compound, the “OH-proline/creatinin (urine)” value ([1]; OVX rats) was 7.3±1.0 μmol/mmol, the “Triglycerides (serum)” value ([1]; OVX rats) was 0.8 ± 0.1 mmol/L and the “increase in trabecular bone number compared to ovariectomized controls” value ([1]; OVX rats) was 137%. The trabecular bone number ([1]; OVX rats) was 1.27±0.1 per mm, the “trabecular bone volume of the tibia” value ([1]; OVX rats) was 11.9±0.6% and the “Inhibition of estrone-stimulated ZR-75-1 tumor size” value ([2]; daily DHEA 0.3 mg or EM-800 15 μg) was 50.4%. For the same compound, the “Inhibition of estrone-stimulated ZR-75-1 tumor size” value ([2]; daily DHEA 1.0 mg or EM-800 50 μg) was 76.8%, the “Inhibition of estrone-stimulated ZR-75-1 tumor size” value ([2]; daily DHEA 3.0 mg or EM-800 100 μg) was 80.0% and the “Inhibition of terminal tumor weight” value ([2]; DHEA 0.3 mg) was 67%. The “Inhibition of terminal tumor weight” value ([2]; DHEA 1.0 mg) was 82%, the “Inhibition of terminal tumor weight” value ([2]; DHEA 3.0 mg) was 85% and the “Category of response: Complete (%)” value [2, 8] was 28.6%. The “Category of response: Complete (Number)” value [2, 8] was 4, the “Category of response: Partial (%)” value [2, 8] was 0 (0) % and the “Category of response: Partial (Number)” value [2, 8] was 0 (0). The “Category of response: Progression (%)” value [2, 8] was 50.0%, the “Category of response: Progression (Number)” value [2, 8] was 7 and the “Category of response: Stable (%)” value [2, 8] was 21.4%. The “Category of response: Stable (Number)” value [2, 8] was 3, the “Category of response: Complete (%)” value [2, 9] was 26.7% and the “Category of response: Complete (Number)” value [2, 9] was 4. For the same compound, the “Category of response: Partial (%)” value [2, 9] was 0 (0) %, the “Category of response: Partial (Number)” value [2, 9] was 0 (0) and the “Category of response: Progression (%)” value [2, 9] was 53.3%. For the same compound, the “Category of response: Progression (Number)” value [2, 9] was 8, the “Category of response: Stable (%)” value [2, 9] was 20.0% and the “Category of response: Stable (Number)” value [2, 9] was 3. The “Category of response: Complete (%)” value [2, 10] was 20.0%, the “Category of response: Complete (Number)” value [2, 10] was 3 and the “Category of response: Partial (%)” value [2, 10] was 0 (0) %. For the same compound, the “Category of response: Partial (Number)” value [2, 10] was 0 (0), the “Category of response: Progression (%)” value [2, 10] was 66.7% and the “Category of response: Progression (Number)” value [2, 10] was 10. The “Category of response: Stable (%)” value [2, 10] was 13.3%, the “Category of response: Stable (Number)” value [2, 10] was 2 and the “Average tumor weight at end of experiment” value (“Average tumor weight at end” below) ([2]; daily DHEA 0.3 mg, EM-800 15 μg, or EM-800 15 μg + DHEA 0.3 mg) was 0.37 ± 0.12 g. For the same compound, the “Average tumor weight at end” value ([2]; daily DHEA 1.0 mg, EM-800 50 μg, or EM-800 15 μg + DHEA 1.0 mg) was 0.20 ± 0.06 g, the “Average tumor weight at end” value ([2]; daily DHEA 3.0 mg, EM-800 100 μg, or EM-800 15 μg + DHEA 3.0 mg) was 0.17 ± 0.06 g and the “decrease in fasting plasma insulin levels” value [3] was 17%. For the same compound, the “decrease in plasma bone alkaline phosphatase” value [3] was 22%, the “decrease in subcutaneous skin fold thickness” value [3] was 9.8% and the “decrease in urinary hydroxyproline” value [3] was 38%. For the same compound, the “decrease of fasting plasma glucose” value [3] was 12%, the “decrease of femoral fat (mid-thigh, computed tomography)” value [3] was 3.8% and the “effect on the endometrium” value [3] was “remained completely atrophic”. The “increase in femoral muscular area” value [3] was 3.5%, the “increase of bone mass density at the hip” value [3] was 2.3% and the “increase of bone mass density at the hip Ward's triangle” value [3] was 3.75%. For the same compound, the “increase of bone mass density at the lumbar spine level” value [3] was 2.2%, the “increase of the index of sebum secretion” value [3] was 79% and the “increase over control in plasma osteocalcin” value [3] was 135%. For the same compound, the “women with stimulated vaginal epithelium maturation among those with a maturation value of zero at onset” value [3] was 8 out of 10, the “decrease of abdominal subcutaneous fat” value ([4]; both women and men) was 6% and the “decrease of responsiveness of serum insulin to the glucose tolerance test” value ([4]; in vivo) was 13%. For the same compound, the “improvement in the insulin sensitivity index” value ([4]; in vivo) was 34%, the “decrease of abdominal visceral fat” value ([4]; men) was 7.4% and the “decrease of abdominal visceral fat” value ([4]; women) was 10.2%.

In the case of `CC1=C(c2ccc(O)cc2)[C@H](c2ccc(OCCN3CCCCC3)cc2)Oc2cc(O)ccc21.Cl` [EM-652.HCl, (S)-(+)-7-hydroxy-3-(4′-hydroxyphenyl)-4-methyl-2-(4″-(2′″-piperidinoethoxy)phenyl)-2H-1-benzopyran hydrochloride], the “increase of average tumor size over baseline (agonistic effect)” value ([5]; absence of estrone, 200 μg daily, 161 days) is reported as “did not significantly change”, the “tumor size lower than the initial value at start of treatment” value ([5]; estrone-stimulated, 50 μg oral daily, 23 weeks) is reported as 26% and the “complete response, % of tumors” value [5, 11] is reported as 17%. For the same compound, the “partial response, % of tumors” value [5, 11] was 17%, the “progressing tumors, % of tumors” value [5, 11] was 7% and the “stable response, % of tumors” value [5, 11] was 60%. The “inhibition of the stimulatory effect of estrone on epithelial height” value ([6]; 50 μg daily oral, estrone stimulation) was 70%, the “height of uterine epithelial cells, % of the OVX control group value” ([6]; 200 μg daily, absence of estrone) was 114% and the “ENDOMETRIAL EPITHELIUM THICKNESS (μm) ± SEM” value ([6]; OVX + E1, antiestrogen 50 μg daily) was 25.06^b ± 0.07 μm. For the same compound, the “ENDOMETRIAL EPITHELIUM THICKNESS (μm) ± SEM” value ([6]; OVX without E1, antiestrogen 200 μg daily) was 20.79 ± 0.10 μm, the IC50 ([7]; Homo sapiens, Ishikawa, 120 h, read-out: Inhibition of 1 nM E2-induced stimulation of alkaline phosphatase IC50) was 1.52 ± 0.22 nM and the Emax ([7]; Homo sapiens, Ishikawa, 120 h, read-out: Maximal stimulation of alkaline phosphatase % of 1 nM E2 stimulation) was 1.88 ± 0.26%. The “Maximal inhibition of 1 nM E2-induced stimulation of alkaline phosphatase” value ([7]; Ishikawa cells, 5-day incubation, 1 nM E2) was 98.97 ± 0.174 (18).

— patent US11452731B2, “Method of treating and preventing loss of cognition” (ENDORECHERCHE, INC., priority 2009, dated 2022)
